Like-named read-outs stand apart in the source and are kept apart here.
What was measured:
Type in all cases: cell-based
CAv1.2 = CAv1.2 (Homo sapiens, UniProt Q13936); assay: FLIPR data, CAv1.2 channel blocking (Table 6); details: for CAv1.2 IC50 Ratio closed/inact.: ratio closed/inactivated IC50
Human Cav 2.2 channels = Human Cav 2.2 channels (Homo sapiens, UniProt Q00975); assay: Fluorescent assay for CaV2.2 channels using potassium depolarization (VIPR/FLIPR); details: FLIPR data; for CAv2.2 IC50 Ratio closed/inact.: ratio closed/inactivated IC50
Method in brief: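 Fluo-4 calcium fluorescence (480/535 nm) was recorded on VIPR or FLIPR after depolarization to 70 mM final potassium. Before this, cells were preincubated 30 min at 25 °C with compound in 4–30 mM potassium, so that state-dependent block could be assessed; the cells were HEK293 coexpressing Cav2.2, α2δ, β and Kir2.3.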

T-type calcium channel [1] = target: T-type calcium channel (Homo sapiens, UniProt O43497); assay: T-type channel blocking, FLIPR data (Table 6); details: CAv3.1
Source text: (§1) Another method, high-throughput spectrophotometric assay, utilizes loading of the cell lines with a fluorescent dye sensitive to intracellular calcium concentration and subsequent examination of the effects of compounds on the ability of depolarization by potassium chloride or other means to alter intracellular calcium levels.

T-type calcium channel [2] = target: T-type calcium channel (Homo sapiens, UniProt O95180); assay: T-type channel blocking, FLIPR data (Table 6); details: for CAv3.2 IC50 Ratio closed/inact.: CAv3.2, ratio closed/inactivated IC50
Source text: as §1

[3] = inactivated state, read-out: CAv1.2 IC50 Inact.
[4] = closed state, read-out: CAv2.2 IC50 Closed
[5] = inactivated state, read-out: CAv2.2 IC50 Inact.
[6] = CAv3.2, closed state, read-out: CAv3.2 IC50 Closed
[7] = CAv3.2, inactivated state, read-out: CAv3.2 IC50 Inact.
[8] = closed state, read-out: CAv1.2 IC50 Closed

Chain of CAv1.2 (Q13936 whole entry): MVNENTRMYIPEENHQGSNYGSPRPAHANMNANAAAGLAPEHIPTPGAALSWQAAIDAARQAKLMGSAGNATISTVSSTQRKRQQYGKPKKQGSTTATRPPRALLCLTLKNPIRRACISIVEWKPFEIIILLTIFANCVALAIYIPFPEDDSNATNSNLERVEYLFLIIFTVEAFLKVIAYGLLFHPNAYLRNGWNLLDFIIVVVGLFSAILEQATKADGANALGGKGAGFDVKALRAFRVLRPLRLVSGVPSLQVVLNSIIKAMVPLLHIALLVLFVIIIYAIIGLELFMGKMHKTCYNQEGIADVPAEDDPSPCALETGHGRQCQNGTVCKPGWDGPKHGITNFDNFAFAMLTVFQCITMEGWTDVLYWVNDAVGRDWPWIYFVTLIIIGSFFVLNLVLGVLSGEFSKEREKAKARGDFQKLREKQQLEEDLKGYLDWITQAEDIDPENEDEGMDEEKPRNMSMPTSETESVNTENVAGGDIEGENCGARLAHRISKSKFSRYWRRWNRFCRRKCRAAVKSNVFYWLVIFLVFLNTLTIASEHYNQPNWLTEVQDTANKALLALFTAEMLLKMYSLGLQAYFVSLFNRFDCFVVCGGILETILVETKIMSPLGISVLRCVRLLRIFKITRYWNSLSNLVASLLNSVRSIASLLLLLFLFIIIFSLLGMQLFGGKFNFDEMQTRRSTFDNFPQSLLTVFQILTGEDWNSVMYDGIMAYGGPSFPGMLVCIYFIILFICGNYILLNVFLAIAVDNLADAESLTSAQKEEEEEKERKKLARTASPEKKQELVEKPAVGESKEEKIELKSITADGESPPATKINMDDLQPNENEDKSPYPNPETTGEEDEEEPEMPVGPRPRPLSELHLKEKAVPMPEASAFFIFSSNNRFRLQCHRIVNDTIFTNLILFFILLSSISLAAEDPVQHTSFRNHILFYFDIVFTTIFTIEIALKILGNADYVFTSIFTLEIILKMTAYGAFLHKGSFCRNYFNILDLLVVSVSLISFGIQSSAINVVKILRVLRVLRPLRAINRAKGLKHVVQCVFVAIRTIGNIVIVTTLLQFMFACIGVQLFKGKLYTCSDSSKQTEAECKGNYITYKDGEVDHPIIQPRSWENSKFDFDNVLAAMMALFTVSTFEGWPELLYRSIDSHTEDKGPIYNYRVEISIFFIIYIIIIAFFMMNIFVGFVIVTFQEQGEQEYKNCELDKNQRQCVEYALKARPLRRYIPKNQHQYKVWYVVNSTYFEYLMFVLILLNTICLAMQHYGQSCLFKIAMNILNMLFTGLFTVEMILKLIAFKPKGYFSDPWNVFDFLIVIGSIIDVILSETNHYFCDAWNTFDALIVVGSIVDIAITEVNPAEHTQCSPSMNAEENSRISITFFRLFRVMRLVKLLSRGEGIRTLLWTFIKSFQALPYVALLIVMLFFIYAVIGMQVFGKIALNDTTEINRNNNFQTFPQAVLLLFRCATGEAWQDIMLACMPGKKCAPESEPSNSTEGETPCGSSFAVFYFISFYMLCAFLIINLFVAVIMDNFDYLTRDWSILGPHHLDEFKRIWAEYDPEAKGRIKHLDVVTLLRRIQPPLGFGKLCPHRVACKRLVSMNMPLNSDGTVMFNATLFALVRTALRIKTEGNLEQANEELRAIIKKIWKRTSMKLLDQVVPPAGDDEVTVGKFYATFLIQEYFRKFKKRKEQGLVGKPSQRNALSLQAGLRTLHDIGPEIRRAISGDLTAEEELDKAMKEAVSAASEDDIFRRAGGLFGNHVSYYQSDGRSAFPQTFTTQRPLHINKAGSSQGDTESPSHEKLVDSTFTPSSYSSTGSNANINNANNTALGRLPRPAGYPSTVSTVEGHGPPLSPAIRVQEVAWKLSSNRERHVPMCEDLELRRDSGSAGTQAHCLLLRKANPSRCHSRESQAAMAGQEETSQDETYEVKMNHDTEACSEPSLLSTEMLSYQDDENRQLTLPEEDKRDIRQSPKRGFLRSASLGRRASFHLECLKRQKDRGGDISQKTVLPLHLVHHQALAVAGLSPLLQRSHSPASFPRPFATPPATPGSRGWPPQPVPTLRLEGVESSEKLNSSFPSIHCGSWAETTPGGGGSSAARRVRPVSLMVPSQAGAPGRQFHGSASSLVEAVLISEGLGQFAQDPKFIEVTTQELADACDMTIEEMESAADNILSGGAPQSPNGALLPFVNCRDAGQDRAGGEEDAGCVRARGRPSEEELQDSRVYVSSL
Chain of CAv1.2 (P54289 25-1103 partner): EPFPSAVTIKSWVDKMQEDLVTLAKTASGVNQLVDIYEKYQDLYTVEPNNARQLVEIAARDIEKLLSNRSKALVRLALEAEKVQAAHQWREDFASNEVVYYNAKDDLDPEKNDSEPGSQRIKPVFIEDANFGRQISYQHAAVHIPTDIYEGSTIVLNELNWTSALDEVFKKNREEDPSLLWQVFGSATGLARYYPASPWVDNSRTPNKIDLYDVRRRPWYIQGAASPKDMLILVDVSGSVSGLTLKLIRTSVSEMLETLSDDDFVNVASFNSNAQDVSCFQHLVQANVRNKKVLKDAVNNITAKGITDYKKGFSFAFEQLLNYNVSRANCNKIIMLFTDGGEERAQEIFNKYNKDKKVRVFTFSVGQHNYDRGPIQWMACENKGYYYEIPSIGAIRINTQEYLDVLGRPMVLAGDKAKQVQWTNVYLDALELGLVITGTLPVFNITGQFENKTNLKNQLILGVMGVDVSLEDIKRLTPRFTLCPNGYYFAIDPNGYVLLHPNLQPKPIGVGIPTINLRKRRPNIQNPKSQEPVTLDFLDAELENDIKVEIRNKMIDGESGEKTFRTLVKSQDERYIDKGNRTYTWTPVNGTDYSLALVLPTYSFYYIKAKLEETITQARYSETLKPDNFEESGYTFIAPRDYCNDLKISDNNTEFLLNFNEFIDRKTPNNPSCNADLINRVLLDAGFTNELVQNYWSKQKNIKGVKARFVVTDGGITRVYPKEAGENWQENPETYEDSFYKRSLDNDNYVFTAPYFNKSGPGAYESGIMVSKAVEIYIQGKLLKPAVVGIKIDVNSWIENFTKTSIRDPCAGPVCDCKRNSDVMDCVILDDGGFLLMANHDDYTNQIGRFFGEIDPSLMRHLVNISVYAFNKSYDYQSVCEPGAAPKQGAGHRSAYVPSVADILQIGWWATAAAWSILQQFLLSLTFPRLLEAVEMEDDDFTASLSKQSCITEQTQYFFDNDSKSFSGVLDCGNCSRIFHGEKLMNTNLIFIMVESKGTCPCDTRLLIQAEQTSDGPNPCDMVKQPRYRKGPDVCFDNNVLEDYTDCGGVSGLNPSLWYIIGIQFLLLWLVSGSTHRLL
Chain of CAv1.2 (Q08289 whole entry partner): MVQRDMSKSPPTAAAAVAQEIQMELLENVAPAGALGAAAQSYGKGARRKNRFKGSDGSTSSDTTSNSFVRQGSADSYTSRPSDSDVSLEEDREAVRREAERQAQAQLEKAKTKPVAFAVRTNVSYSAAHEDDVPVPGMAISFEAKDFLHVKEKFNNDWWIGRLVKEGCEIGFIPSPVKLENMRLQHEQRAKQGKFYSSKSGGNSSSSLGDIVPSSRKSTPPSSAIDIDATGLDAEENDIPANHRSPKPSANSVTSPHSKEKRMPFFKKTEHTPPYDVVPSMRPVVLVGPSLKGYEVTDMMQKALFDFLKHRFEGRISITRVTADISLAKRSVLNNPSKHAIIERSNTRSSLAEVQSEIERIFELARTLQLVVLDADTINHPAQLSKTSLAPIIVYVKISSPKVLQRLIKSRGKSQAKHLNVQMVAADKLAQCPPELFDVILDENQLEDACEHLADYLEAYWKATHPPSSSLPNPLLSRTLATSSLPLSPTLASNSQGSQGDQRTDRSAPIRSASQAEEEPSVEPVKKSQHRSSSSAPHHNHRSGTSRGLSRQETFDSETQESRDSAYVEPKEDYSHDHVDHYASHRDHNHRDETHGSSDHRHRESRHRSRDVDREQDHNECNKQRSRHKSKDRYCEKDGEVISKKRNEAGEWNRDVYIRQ

SMILES	IC50 (CAv1.2; [3]) [µM]	IC50 (Human Cav 2.2 channels; [4]) [nM]	IC50 (Human Cav 2.2 channels; [5]) [nM]	CAv2.2 IC50 Ratio closed/inact. (Human Cav 2.2 channels)	IC50 (T-type calcium channel [1]) [µM]	IC50 (T-type calcium channel [2]; [6]) [µM]	IC50 (T-type calcium channel [2]; [7]) [µM]	CAv3.2 IC50 Ratio closed/inact. (T-type calcium channel [2])	IC50 (CAv1.2; [8]) [µM]	CAv1.2 IC50 Ratio closed/inact. (CAv1.2)
O=C(NC[C@H]1C[C@H](S(=O)(=O)c2cc(F)cc(C(F)(F)F)c2)C1)c1ccc(C(F)(F)F)nc1 [Compound 704]	≥ 10	10000	1650	6.1	≥ 10	≥ 10	8.75	1.1		
O=C(NC[C@H]1C[C@H](S(=O)(=O)c2cc(F)cc(C(F)(F)F)c2)C1)c1cnc(C(F)(F)F)nc1 [Compound 705]	≥ 10	10000	2470	4	≥ 10	≥ 10	10	1	≥ 10	
O=C(NC[C@H]1C[C@H](S(=O)(=O)c2cc(F)cc(C(F)(F)F)c2)C1)c1ccc(OCC(F)(F)F)nc1 [Compound 706]	3.09	3950	850	4.6	2.87	4.02	0.74	5.4	7.98	2.6
O=C(NC[C@H]1C[C@H](S(=O)(=O)c2cc(F)cc(C(F)(F)F)c2)C1)c1ccnc(C(F)(F)F)n1 [Compound 710]	≥ 10	5010	1490	3.4	≥ 10	≥ 10	10	1	≥ 10	
CC(C)S(=O)(=O)c1cc(C(F)(F)F)cnc1C(=O)N[C@H]1C[C@H](CC(C)(C)S(=O)(=O)c2cccc(C(F)(F)F)c2)C1 [Compound 716]	6.54	6040	220	27.5	≥ 10	≥ 10	6.84	1.5	7.76	1.2
CC(C)(C[C@H]1C[C@H](NC(=O)c2ccc(Cl)cc2S(C)(=O)=O)C1)S(=O)(=O)c1cccc(C(F)(F)F)c1 [Compound 718]	≥ 10	4710	150	31.4	≥ 10	5.68	3.67	1.5	≥ 10	
CC(C)(C[C@H]1C[C@H](NC(=O)c2ccc(C(F)(F)F)cc2)C1)S(=O)(=O)c1cccc(C(F)(F)F)c1 [Compound 719]	0.75	1240	110	11.3	1.78	0.73	0.64	1.1	2.73	3.6
CC(C)(C[C@H]1C[C@H](NC(=O)c2ccc(Cl)cn2)C1)S(=O)(=O)c1cccc(C(F)(F)F)c1 [Compound 720]	2.45	830	160	5.2	4.5	3.95	2.05	1.9	7.01	2.9
CC(C)(C[C@H]1C[C@H](NC(=O)c2cnc(C(F)(F)F)nc2)C1)S(=O)(=O)c1cccc(C(F)(F)F)c1 [Compound 721]	4.57	4860	510	9.5	≥ 10	8.44	4.32	2	≥ 10	2.2
CC(C)(C[C@H]1C[C@H](NC(=O)c2ccc(C(F)(F)F)cn2)C1)S(=O)(=O)c1cccc(C(F)(F)F)c1 [Compound 722]	2.56	1210	230	5.3	2.76	3.68	2.66	1.4	8.04	3.1
CC(C)(C[C@H]1C[C@H](NC(=O)c2ccc(C(F)(F)F)nc2)C1)S(=O)(=O)c1cccc(C(F)(F)F)c1 [Compound 723]	4.89	3140	490	6.4	7.86	6.22	5.1	1.2	≥ 10	2
CC(C)(C[C@H]1C[C@H](NC(=O)c2ccc(OCC(F)(F)F)nc2)C1)S(=O)(=O)c1cccc(C(F)(F)F)c1 [Compound 724]	1.21	980	90	10.9	1.41	2.24	0.83	2.7	5.23	4.3
Cn1nc(C(F)(F)F)cc1C(=O)N[C@H]1C[C@H](CC(C)(C)S(=O)(=O)c2cccc(C(F)(F)F)c2)C1 [Compound 725]	2.78	1630	140	11.6	3.6	2.31	0.68	3.4	6.7	2.4
CC(C)S(=O)(=O)c1cc(C(F)(F)F)cnc1C(=O)N[C@H]1C[C@@H](CC(C)(C)S(=O)(=O)c2cccc(C(F)(F)F)c2)C1 [Compound 729]	9.3	6900	150	46	8.24	8.13	6.78	1.2	≥ 10	1.1
CC(C)(C[C@H]1C[C@@H](NC(=O)c2ccc(Cl)cc2S(C)(=O)=O)C1)S(=O)(=O)c1cccc(C(F)(F)F)c1 [Compound 731]	≥ 10	5380	230	23.4	≥ 10	6.36	6.67	1	≥ 10	
CC(C)(C[C@H]1C[C@@H](NC(=O)c2ccc(C(F)(F)F)cc2)C1)S(=O)(=O)c1cccc(C(F)(F)F)c1 [Compound 732]	0.62	920	60	15.3	3.81	0.57	0.76	0.8	2.89	4.7
CC(C)(C[C@H]1C[C@@H](NC(=O)c2ccc(Cl)cn2)C1)S(=O)(=O)c1cccc(C(F)(F)F)c1 [Compound 733]	3.99	500	50	10	6.16	4.61	1.41	3.3	7.27	1.8
